Measured values published in ChEMBL document CHEMBL1201862, “PubChem BioAssay data set” (2004).
Blank lines part the entries; values can stand above or below the molecule they belong to. Activity calls are given as the source filed them.

Assays:
[1] = biological target: T1, Short transient receptor potential channel 4 (Mus musculus, UniProt Q9QUQ5); assay: mouse TRPC4 channel inhibitors, dose response, cell-based, HEK293 TRPC4/mu-opioid, Fluo-4 calcium (AID 434942); assay type: functional;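 also: potency of inhibitors blocking the TRPC4 calcium response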
T1 sequence (Q9QUQ5 whole entry): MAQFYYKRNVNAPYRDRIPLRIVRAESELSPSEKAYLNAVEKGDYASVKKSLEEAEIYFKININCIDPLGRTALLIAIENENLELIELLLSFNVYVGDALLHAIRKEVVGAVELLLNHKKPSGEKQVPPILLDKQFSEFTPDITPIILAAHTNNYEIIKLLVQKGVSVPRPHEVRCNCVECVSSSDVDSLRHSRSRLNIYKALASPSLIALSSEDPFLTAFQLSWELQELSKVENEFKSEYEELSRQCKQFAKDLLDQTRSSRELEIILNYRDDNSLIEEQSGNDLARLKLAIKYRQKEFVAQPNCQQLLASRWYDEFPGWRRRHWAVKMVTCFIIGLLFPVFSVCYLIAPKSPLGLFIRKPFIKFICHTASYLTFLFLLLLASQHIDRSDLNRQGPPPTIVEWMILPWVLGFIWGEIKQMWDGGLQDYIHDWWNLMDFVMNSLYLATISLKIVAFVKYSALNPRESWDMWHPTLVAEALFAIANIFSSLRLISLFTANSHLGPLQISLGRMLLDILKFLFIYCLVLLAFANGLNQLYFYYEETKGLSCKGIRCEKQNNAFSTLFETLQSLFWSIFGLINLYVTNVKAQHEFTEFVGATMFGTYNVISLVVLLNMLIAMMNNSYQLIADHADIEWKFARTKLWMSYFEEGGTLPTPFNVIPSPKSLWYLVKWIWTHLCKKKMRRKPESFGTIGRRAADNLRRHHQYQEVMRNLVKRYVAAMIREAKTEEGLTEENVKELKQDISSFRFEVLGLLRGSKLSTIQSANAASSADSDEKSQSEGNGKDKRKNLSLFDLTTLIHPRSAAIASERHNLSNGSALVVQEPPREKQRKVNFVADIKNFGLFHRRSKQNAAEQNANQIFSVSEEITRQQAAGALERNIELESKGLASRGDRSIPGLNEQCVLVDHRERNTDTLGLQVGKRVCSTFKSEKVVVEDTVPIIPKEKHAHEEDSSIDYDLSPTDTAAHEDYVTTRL

[2] = biological target: Induced myeloid leukemia cell differentiation protein Mcl-1 (Homo sapiens, UniProt Q07820); assay type: functional
Induced myeloid leukemia cell differentiation protein Mcl-1, sequence (Q07820 whole entry): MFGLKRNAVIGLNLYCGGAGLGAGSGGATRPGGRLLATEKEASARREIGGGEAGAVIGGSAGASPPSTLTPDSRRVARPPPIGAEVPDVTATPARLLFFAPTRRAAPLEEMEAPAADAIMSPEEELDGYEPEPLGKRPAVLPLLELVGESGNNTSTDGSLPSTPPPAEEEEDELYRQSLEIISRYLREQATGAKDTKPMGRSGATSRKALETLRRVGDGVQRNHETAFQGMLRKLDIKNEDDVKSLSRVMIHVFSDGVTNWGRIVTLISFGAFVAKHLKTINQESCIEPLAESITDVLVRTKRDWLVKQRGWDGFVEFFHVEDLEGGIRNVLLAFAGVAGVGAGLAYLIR

[3] = biological target: Cytochrome P450 2C19 (Homo sapiens, UniProt P33261); assay: Cytochrome panel assay with activity outcomes. Panel member name: p450-cyp2c19 Compounds with AC50 equal or less than 10 uM are considered active; assay type: functional; details: read-out: AC50
Cytochrome P450 2C19, sequence (P33261 whole entry): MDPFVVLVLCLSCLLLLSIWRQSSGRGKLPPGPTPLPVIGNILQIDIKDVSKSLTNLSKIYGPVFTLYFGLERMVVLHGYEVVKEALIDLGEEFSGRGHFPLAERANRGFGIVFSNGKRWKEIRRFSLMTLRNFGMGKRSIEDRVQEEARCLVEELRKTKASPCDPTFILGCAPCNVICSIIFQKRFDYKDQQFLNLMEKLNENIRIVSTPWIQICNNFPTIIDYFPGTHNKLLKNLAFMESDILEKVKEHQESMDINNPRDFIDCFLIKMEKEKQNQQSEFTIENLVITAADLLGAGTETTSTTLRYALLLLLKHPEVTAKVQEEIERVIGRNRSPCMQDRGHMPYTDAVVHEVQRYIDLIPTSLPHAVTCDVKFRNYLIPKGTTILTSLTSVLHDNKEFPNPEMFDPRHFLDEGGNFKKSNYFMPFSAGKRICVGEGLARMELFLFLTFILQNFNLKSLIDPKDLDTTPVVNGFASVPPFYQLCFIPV

[4] = biological target: Large T antigen (Simian virus 40, UniProt P03070); assay type: functional, Betapolyomavirus macacae;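 also: Confirmatory-stage PubChem screen for compounds that inhibit SV40 T antigen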
Large T antigen, sequence (P03070 whole entry, the tested form may be a part): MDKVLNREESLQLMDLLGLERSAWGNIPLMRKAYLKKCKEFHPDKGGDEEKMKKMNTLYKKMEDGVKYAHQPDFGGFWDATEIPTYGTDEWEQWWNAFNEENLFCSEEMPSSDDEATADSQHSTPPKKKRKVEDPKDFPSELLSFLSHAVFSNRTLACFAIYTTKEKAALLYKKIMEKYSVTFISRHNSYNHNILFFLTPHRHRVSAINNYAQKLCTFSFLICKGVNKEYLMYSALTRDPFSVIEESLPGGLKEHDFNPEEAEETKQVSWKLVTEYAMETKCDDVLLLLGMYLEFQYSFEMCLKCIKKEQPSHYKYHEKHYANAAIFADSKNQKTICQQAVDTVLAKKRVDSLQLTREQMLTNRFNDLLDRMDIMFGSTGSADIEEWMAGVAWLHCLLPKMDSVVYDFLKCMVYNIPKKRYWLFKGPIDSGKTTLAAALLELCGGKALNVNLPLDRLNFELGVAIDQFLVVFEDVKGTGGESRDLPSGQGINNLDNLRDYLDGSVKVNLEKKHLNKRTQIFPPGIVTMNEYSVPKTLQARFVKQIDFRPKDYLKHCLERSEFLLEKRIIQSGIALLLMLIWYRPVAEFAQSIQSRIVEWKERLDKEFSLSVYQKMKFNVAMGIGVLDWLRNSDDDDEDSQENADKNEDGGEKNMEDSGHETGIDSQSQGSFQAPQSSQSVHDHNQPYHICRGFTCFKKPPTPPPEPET

[5] = biological target: T2, Fatty acid synthase (Homo sapiens, UniProt P49327); assay: FAS thioesterase domain inhibitors, dose response, biochemical, endpoint fluorescence intensity, uHTS hits (AID 624327); assay type: functional;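 also: fluorescence from hydrolysis of an O-methyl fluorescein acyl ester substrate by the enzyme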
T2 sequence (P49327 whole entry, the tested form may be a part): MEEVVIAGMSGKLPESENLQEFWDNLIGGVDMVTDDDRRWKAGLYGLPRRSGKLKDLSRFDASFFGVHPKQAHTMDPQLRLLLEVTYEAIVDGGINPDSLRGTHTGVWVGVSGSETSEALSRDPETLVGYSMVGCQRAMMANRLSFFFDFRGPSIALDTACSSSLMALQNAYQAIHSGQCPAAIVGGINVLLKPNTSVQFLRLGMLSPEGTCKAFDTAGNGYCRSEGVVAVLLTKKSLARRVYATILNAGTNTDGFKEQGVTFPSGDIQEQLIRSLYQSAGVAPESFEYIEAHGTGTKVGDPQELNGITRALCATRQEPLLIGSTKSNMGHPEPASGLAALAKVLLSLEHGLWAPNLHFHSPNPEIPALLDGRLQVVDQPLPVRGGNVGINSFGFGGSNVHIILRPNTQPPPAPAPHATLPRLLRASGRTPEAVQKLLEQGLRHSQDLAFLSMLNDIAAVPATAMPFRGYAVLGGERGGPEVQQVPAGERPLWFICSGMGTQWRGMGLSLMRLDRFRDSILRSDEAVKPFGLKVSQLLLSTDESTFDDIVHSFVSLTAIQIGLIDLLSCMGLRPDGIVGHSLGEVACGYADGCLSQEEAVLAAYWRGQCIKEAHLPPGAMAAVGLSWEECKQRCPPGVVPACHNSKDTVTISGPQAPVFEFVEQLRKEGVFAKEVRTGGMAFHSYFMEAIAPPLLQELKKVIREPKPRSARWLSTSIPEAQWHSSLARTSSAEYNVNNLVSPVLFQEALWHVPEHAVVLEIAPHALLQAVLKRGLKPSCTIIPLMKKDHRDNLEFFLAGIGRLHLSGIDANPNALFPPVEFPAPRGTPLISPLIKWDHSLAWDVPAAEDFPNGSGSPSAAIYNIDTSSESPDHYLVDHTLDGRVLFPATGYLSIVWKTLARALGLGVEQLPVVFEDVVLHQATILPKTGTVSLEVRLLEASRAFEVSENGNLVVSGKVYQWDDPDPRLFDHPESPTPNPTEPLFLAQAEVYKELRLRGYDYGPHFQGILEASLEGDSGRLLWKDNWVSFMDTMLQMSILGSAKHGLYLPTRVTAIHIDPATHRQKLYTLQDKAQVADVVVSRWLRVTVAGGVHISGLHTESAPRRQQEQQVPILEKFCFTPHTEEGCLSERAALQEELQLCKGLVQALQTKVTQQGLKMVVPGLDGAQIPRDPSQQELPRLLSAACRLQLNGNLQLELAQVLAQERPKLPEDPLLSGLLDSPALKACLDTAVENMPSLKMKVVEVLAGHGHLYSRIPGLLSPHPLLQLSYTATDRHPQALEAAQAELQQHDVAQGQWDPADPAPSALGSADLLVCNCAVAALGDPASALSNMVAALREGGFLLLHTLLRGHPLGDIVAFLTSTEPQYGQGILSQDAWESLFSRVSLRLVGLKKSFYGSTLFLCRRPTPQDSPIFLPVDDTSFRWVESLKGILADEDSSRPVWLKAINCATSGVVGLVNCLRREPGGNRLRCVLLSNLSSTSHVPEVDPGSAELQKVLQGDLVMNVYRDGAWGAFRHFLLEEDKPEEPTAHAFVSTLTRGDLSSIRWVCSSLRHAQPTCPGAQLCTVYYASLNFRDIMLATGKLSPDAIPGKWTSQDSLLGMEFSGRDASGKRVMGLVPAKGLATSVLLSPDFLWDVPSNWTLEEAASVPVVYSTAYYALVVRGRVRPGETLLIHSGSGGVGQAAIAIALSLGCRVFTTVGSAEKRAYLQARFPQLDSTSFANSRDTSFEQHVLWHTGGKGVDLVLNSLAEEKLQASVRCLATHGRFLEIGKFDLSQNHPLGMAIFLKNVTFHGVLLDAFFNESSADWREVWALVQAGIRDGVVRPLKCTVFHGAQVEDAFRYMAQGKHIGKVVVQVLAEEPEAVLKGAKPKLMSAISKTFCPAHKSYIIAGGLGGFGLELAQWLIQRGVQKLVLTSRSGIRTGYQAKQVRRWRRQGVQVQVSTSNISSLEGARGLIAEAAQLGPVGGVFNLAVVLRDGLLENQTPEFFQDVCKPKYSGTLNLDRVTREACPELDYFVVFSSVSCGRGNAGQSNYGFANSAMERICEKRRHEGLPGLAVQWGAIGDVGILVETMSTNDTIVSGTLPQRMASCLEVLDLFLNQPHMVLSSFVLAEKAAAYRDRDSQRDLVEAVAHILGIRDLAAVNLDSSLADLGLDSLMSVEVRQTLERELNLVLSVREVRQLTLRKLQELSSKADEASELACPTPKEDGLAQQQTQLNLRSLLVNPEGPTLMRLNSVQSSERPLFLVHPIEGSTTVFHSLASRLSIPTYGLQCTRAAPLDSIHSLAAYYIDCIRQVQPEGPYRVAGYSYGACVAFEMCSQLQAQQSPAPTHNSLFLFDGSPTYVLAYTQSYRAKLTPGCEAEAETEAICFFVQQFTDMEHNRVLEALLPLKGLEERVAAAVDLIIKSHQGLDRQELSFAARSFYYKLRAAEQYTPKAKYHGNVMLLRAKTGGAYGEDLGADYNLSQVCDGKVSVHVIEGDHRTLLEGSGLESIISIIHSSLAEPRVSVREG

[6] = biological target: T2, Fatty acid synthase; assay: FAS thioesterase domain inhibitors, dose response, biochemical, kinetic fluorescence intensity (AID 624326); assay type: functional;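 also: rate of fluorescence rise from hydrolysis of a fluorogenic O-methyl fluorescein ester substrate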
[7] = system: Streptococcus sp. 'group A'; assay: growth inhibition of control SK(-) GAS strain, dose response, counter-screen for streptokinase expression inhibitor project, luminescence, kanamycin, BacTiterGlo, confirmation (AID 1900); assay type: functional, organism-based
[8] = inhibitors of intracellular T. cruzi replication, confirmation, NIH3T3 host cells, beta-gal luminescence (AID 2044); assay type: functional, cell-based;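 also: intracellular parasites grown in NIH/3T3 mouse fibroblasts as host cells; luminescent beta-galactosidase reporter signal from transgenic T. cruzi replicating inside host cells; inhibitors lower the luminescence signal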
[9] = cytotoxicity toward NIH3T3 fibroblasts, dose response, counter-screen, cell-based, ATP luminescence, mouse fibroblasts (AID 2010); assay type: functional;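 also: cells exposed to compound for about 90 hours before reading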
[10] = system: Streptococcus; assay: Group A Streptococcus viability loss, dose response, counter-screen for streptokinase expression inhibitor project, luminescence, BacTiterGlo (AID 1915); assay type: functional, organism-based;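 also: potency for reduction of bacterial viability or growth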
[11] = system: INS1; assay: beta cell apoptosis inhibitors, cytokine rescue, dose response, luminescence, retest (AID 449756); assay type: functional, cell-based; details: Rattus norvegicus;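 also: cell death triggered by IL-1 beta plus TNF-alpha plus IFN-gamma mixture; protective hits raise ATP signal compared with cytokine alone wells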
[12] = Shn3 3'UTR reporter inhibitors, dose response, cell-based, Clone20 osteoblasts, firefly luciferase, cherry-picked (AID 624132); assay type: functional;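 also: firefly luciferase luminescence from reporter carrying the Shn3 3'UTR in osteoblasts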
[13] = HepG2 cell cytotoxicity, dose response, cytotoxicity control for Shn3 inhibitor project, CellTiter-Glo, cherry-picked (AID 624134); assay type: functional, cell-based
[14] = control 3'UTR Renilla luciferase suppression, dose response, counter-screen for Shn3 inhibitor project, cell-based, Clone20-Shn3RL, cherry-picked (AID 624133); assay type: functional
[15] = P. falciparum Dd2 growth inhibitors, dose response, SYBR Green, cherry-picked samples (AID 1159567); assay type: functional, cell-based
[16] = NIH-3T3 fibroblast cytotoxicity, dose response, cytotoxicity control, cell-based, fluorescence, Alamar Blue, secondary assay (AID 2327); assay type: functional;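 also: NIH-3T3 mouse fibroblasts cultured with fluconazole at 8 µg/mL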
[17] = biological target: Luciferin 4-monooxygenase (Photinus pyralis, UniProt P08659); assay: firefly luciferase enzyme inhibitors, dose response, biochemical, luminescence (AID 1891)
Luciferin 4-monooxygenase, sequence (P08659 whole entry): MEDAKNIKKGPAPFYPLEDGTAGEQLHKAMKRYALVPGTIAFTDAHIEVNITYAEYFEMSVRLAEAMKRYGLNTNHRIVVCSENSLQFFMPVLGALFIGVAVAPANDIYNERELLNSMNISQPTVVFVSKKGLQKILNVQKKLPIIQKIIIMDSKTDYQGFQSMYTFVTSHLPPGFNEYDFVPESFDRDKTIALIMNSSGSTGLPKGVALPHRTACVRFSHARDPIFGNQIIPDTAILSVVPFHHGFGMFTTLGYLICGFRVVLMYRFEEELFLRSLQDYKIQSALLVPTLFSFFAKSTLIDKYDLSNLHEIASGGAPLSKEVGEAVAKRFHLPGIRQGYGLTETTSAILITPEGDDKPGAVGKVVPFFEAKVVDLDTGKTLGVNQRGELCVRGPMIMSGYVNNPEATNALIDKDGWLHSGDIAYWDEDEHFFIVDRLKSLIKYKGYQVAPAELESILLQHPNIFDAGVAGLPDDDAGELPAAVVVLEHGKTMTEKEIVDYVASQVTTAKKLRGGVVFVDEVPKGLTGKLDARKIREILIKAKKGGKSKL

[18] = Luminescence Cell-Based Dose Confirmation HTS to Identify Inhibitors of Platelet Dense Granule Release. [Related pubchem assays: 1663 (Primary HTS), 1678 (Summary of Project)]; assay type: functional

SMILES: CCCCCc1nc2c(O)nc3ccccc3c2o1
IC50 [2]: 28.3 µM (not active)
AC50 [3]: 3.98 µM (inconclusive)

SMILES: Cn1cccc1/C=N/N1CCN(Cc2ccccc2)CC1
IC50 [4]: 17.6 µM (active)

SMILES: COc1ccccc1C(NC(C)=O)c1cc(Cl)c2cccnc2c1O (configuration not stated)
EC50 [7]: 2.9 µM (active)
EC50 [8]: 0.647 µM (active)
EC50 [9]: 2.85 µM (active)
EC50 [10]: 2.95 µM (active)
AC50 [11]: 1.38 µM (active)
AC50 [12]: 2.56 µM (active)
AC50 [13]: 2.3 µM (active)
AC50 [14]: 1.27 µM (active)

SMILES: COc1ccc(C#Cc2ccc3c(c2)[C@@H]2[C@@H](CCN2C(=O)C2CCC2)[C@H](CO)N3)cc1
AC50 [15]: 5.78 µM (active)

SMILES: Cc1ccc(N/N=C/c2ccc3c(c2)OCCO3)cc1Cl
EC50 [16]: 40.1 µM (active)
EC50 [17]: > 112 µM (not active)
EC50 [18]: 21 µM (active)

SMILES: COc1ccc2c3c([nH]c2c1)[C@@H](CO)N(C(=O)Nc1cccc(F)c1)CC31CN(CC2CCOCC2)C1
AC50 [15]: 4.22 µM (active)

SMILES: O=S(=O)(c1ccc(NC(=S)N2CCN(c3ccc(O)cc3)CC2)cc1)N1CCOCC1
IC50 [4]: 9.69 µM (active)

Further lines, results first:

EC50 [1]: 2.11 µM (active)
SMILES: CC(C)Cc1cc(CN2CCCC(CO)(Cc3cccc(Cl)c3)C2)[nH]n1 (configuration not stated)

IC50 [5]: 7.07 µM (active)
IC50 [6]: 5.67 µM (active)
SMILES: Cc1c(C(=O)OCCOc2ccc(Br)cc2)sc(=S)n1C

IC50 [5]: 19.4 µM (active)
IC50 [6]: 13.2 µM (active)
SMILES: O=C(Nc1cccc(C(=O)O)c1)/C(=C/c1cccc([N+](=O)[O-])c1)NC(=O)c1cccc(Br)c1

IC50 [4]: 15.2 µM (active)
SMILES: CC/C(=N\c1ccccc1O)C1=C(O)CC(c2ccccc2)CC1=O (configuration not stated)

IC50 [4]: 19.3 µM (active)
SMILES: CN(C)c1ccc(C(=O)c2ccc(N(C)C)c(N)c2)cc1N

IC50 [5]: 8.34 µM (active)
IC50 [6]: 8.05 µM (active)
SMILES: CC1(C)CC(=O)C=C(c2ccc(-c3cnn(Cc4ccccc4)c3)cc2)C1=O

IC50 [2]: < 0.4 µM (not active)
SMILES: Cc1cccc(NC(=O)CN2C(=O)N/C(=C/c3ccc(C)o3)C2=O)c1
